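Cultured in 96-well plates, cells were exposed to test compound for 48 hours across five concentrations. The concentration for 50% growth inhibition is given as GI50.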 Calls of active or inactive are those of the source. Rule as the data show it: active = GI50 up to about 1.1 µM and inactive = higher.
Experiments:
Experiment in all cases: NCI-60 cell line screen, 48 h
[1] = test system: NCI-H23
[2] = test system: HOP-62
[3] = test system: SW-620
[4] = test system: 786-0
[5] = test system: SK-OV-3
[6] = test system: HCT-116
[7] = test system: UACC-257
[8] = test system: SF-295
[9] = test system: CAKI-1
[10] = test system: UO-31
[11] = test system: NCI/ADR-RES
[12] = test system: HOP-92
[13] = test system: IGROV-1
[14] = test system: ACHN
[15] = test system: PC-3
[16] = test system: K562
[17] = test system: RPMI-8226
[18] = test system: NCI-H460
[19] = test system: UACC-62
[20] = test system: T47D

Measured: GI50

Cc1ccc(/N=C2/C(c3ccccc3)=C(SC3=C(c4ccccc4)/C(=N/c4ccc(C)cc4)c4ccccc43)c3ccccc32)cc1
inactive: [1] 14 µM | [2] 10 µM | [3] > 100 µM | [4] 10.4 µM | [5] 15 µM | [6] 20.9 µM | [7] 23.4 µM | [8] 12.5 µM | [9] 15.2 µM | [10] 15.6 µM | [11] 22.1 µM | [12] 12.1 µM | [13] 17.1 µM | [14] 3.38 µM | [15] 55 µM | [16] 32.4 µM | [17] 84.7 µM | [18] 8.91 µM | [19] 16.7 µM | [20] 33.3 µM

CCOP(=O)(OCC)/C(C#N)=C/c1ccc(-c2ccc(F)cc2F)o1
inactive: [1] 14.5 µM | [2] 19.2 µM | [3] 18.7 µM | [4] 13.9 µM | [5] 14 µM | [6] 17.4 µM | [7] 13.3 µM | [8] 16.4 µM | [9] 15.3 µM | [10] 13.1 µM | [11] 22.1 µM | [12] 15.2 µM | [13] 13.9 µM | [14] 13.3 µM | [15] 10.8 µM | [16] 12.2 µM | [17] 18.4 µM | [18] 20 µM | [19] 11.3 µM | [20] 3.3 µM

O=[N+]([O-])c1ccc(-c2nc(/C=N/N3CCCCC3)cs2)o1
inactive: [1] 29.2 µM | [2] 53 µM | [3] > 100 µM | [4] > 100 µM | [5] > 100 µM | [6] 34.1 µM | [7] 19.3 µM | [8] > 100 µM | [9] > 100 µM | [10] > 100 µM | [11] 74.8 µM | [12] > 100 µM | [13] 50.8 µM | [14] > 100 µM | [15] > 100 µM | [16] 57.5 µM | [17] 19.1 µM | [18] 49.2 µM | [19] 31.9 µM | [20] 90.2 µM

COC(=O)[C@]12CSC[C@H]1C[C@H](c1cccc3ccccc13)N2
inactive: [1] 91.2 µM | [2] > 100 µM | [3] > 100 µM | [4] > 100 µM | [5] > 100 µM | [6] 51.6 µM | [7] > 100 µM | [8] > 100 µM | [9] > 100 µM | [10] > 100 µM | [11] > 100 µM | [12] > 100 µM | [13] 43.1 µM | [14] 39.4 µM | [15] > 100 µM | [16] 35.1 µM | [17] 61.8 µM | [18] 44.3 µM | [19] > 100 µM | [20] > 100 µM

CCOC(=O)COC1=Nc2cc(OC)c(OC)c3nc(Cl)cc(c23)C1=O
inactive: [1] 2.25 µM | [2] 3.07 µM | [3] 2.16 µM | [4] 1.62 µM | [5] 10.1 µM | [6] 1.67 µM | [7] 1.75 µM | [8] 10 µM | [9] 1.96 µM | [10] 1.84 µM | [11] 2.97 µM | [12] 1.7 µM | [13] 2.37 µM | [14] 1.66 µM | [15] 1.79 µM | [16] 1.2 µM | [17] 1.52 µM | [18] 18.8 µM | [19] 1.78 µM | [20] 2.96 µM

C[C@]12CCC(=O)C=C1CC[C@@H]1[C@@H]2CC[C@]2(C)C(=O)/C(=C/c3ccncc3)C[C@@H]12
inactive: [1] 18.3 µM | [2] 14.6 µM | [3] 23.8 µM | [4] 15.1 µM | [5] 20 µM | [6] 10.6 µM | [7] 13.4 µM | [8] 15.3 µM | [9] 15.9 µM | [10] 12.6 µM | [11] 26.2 µM | [12] 19.1 µM | [13] 21.2 µM | [14] 14.8 µM | [15] 12.4 µM | [16] 11.7 µM | [17] 8.99 µM | [18] 12.3 µM | [19] 12.7 µM | [20] 15.9 µM

CCC1=NC(N/N=C/c2ccco2)=N/C1=C\c1ccccc1O
inactive: [1] 28.8 µM | [2] 76.4 µM | [3] 63.4 µM | [4] 39.7 µM | [5] 47 µM | [6] 23.7 µM | [7] 35.2 µM | [8] 44.2 µM | [9] > 100 µM | [10] 11.6 µM | [11] 24.5 µM | [12] 70 µM | [13] 26.4 µM | [14] 21.9 µM | [15] 31.2 µM | [16] 56.5 µM | [17] 31.9 µM | [18] 14.9 µM | [19] 22.3 µM | [20] 48.9 µM

From ChEMBL document CHEMBL1201862, “PubChem BioAssay data set” (2004)
